In US7892780B2, “Method for screening antioxidant using mutant bacteria and chlorophyllide, and antioxidant screened by the method” (Industry-University Cooperation Foundation Sogang University, priority 2007, dated 2011):

Tested on: Rhodobacter sphaeroides 2.4.1 SodB1 [KCTC 11069BP]
Test: Antioxidant screening by growth of SodB1 mutant bacteria on chlorophyllide-added medium blocks or filter discs
Assay type: cell-based
Details: sample dissolved in ethanol or dimethylsulfoxide, FIG. 5
Procedure: Next, an antioxidant sample and SodB1 mutant bacteria were added to these medium blocks, or otherwise chlorophyllide (0.1 to 100 mM) was added directly to filter discs to which a desired concentration of an antioxidant candidate material was then added. Thereafter, multimeric protein-expressing SodB1 mutant bacteria, i.e. Rhodobacter sphaeroides 2.4.1 SodB1 [KCTC 11069BP], were plated on a Sistrom's minimal medium [20 mM potassium dihydrogen phosphate (KH2PO4), 3.8 mM ammonium sulfate ((NH4)2SO4), 34 mM succinic acid, 0.59 mM L-glutamic acid, 0.30 mM L-aspartic acid, 8.5 mM sodium chloride, 1.05 mM nitrilotriacetic acid, 1.2 mM magnesium chloride (MgCl2.6H2O), 0.23 mM calcium chloride (CaCl2.7H2O), 25 μM ferrous sulfate (FeSO4.7H2O), 0.16 μM ammonium molybdate ((NH4)6Mo7O24.4H2O), 4.7 μM EDTA, 38 μM zinc sulfate (ZnSO4.7H2O), 9.1 μM manganese sulfate (MnSO4.H2O), 1.6 μM copper sulfate (CuSO4.5H2O), 0.85 μM cobalt (II) nitrate (Co(NO3)2.6H2O), 1.8 μM boric acid (H3BO3), 8.1 μM nicotinic acid, 1.5 μM thiamine hydrochloride, and 41 nM biotin] (Sistrom, W. R, 1962. J. Gen. Microbiol. 28: 607-616).
As a result, when there was an antioxidant activity in the antioxidant candidate material to be screened, cells grew only on the medium blocks or around filter discs and thus red bacteria were observed. […]

| Compound | cell growth of SodB1 mutant bacteria / prevention of cell death (antioxidant activity) |
| --- | --- |
| O=c1c(O)c(-c2ccc(O)c(O)c2)oc2cc(O)cc(O)c12 [quercetin] | partial cell growth |
| tocopherol | partial cell growth |
